Assay results taken from patent US8338598B2, “Herbicidal pyrido[2,3-B]pyrazines and their use as herbicides” (Syngenta Limited, priority 2008, dated 2012).

Assays:
Assay type in all cases: in vivo
[1] = tested on: Amaranthus retroflexus; assay: Example B1 herbicidal action, post-emergence, seed trays in climatic chamber; conditions: 1000 g/ha, evaluated after 9 days, 10=total damage to plant, 0=no damage to plant
Procedure: (§1) Seeds of a variety of test species were sown in sterilised standard soil in seed trays each having 96 cells. After cultivation for 8 to 9 days cultivation (post-emergence) under controlled conditions in a climatic chamber (cultivation at 23/17° C., day/night; 13 hours light; 50-60% humidity), the plants were treated with an aqueous spray solution of 1000 mg/l of the active ingredient dissolved in 10% DMSO (dimethyl sulfoxide, CAS RN 67-68-5) as a solvent, equivalent to 1000 g/ha. The plants were grown in the climatic chamber after application at (24/19° C., day/night; 13 hours light; 50-60% humidity) and watered twice daily. After 9 days until the test was evaluated (10=total damage to plant, 0=no damage to plant)

[2] = tested on: Nasturtium officinale; assay: as above; conditions: 1000 g/ha, evaluated after 9 days, 10=total damage to plant, 0=no damage to plant
Procedure: as §1

[3] = tested on: Solanum nigrum; assay: as above; conditions: 1000 g/ha, evaluated after 9 days, 10=total damage to plant, 0=no damage to plant
Procedure: as §1

[4] = tested on: Stellaria media; assay: as above; conditions: 1000 g/ha, evaluated after 9 days, 10=total damage to plant, 0=no damage to plant
Procedure: as §1

[5] = tested on: Amaranthus retroflexus; assay: Example B2 herbicidal action, pre-emergence, pots in glasshouse; conditions: evaluated after 13 days, 10=total damage to plant, 0=no damage to plant
Procedure: (§2) Seeds of a variety of test species were sown in standard soil in pots. After cultivation for one day (pre-emergence) or after 8 days cultivation (post-emergence) under controlled conditions in a glasshouse (at 24/16° C., day/night; 14 hours light; 65% humidity), the plants were sprayed with an aqueous spray solution derived from the formulation of the technical active ingredient in acetone/water (50:50) solution containing 0.5% Tween 20 (polyoxyethelyene sorbitan monolaurate, CAS RN 9005-64-5). The test plants were then grown in a glasshouse under controlled conditions in a glasshouse (at 24/16° C., day/night; 14 hours light; 65% humidity) and watered twice daily. After 13 days, the test was evaluated (10=total damage to plant; 0=no damage to plant).

[6] = tested on: Echinochloa crus-galli; assay: as above; conditions: evaluated after 13 days, 10=total damage to plant, 0=no damage to plant
Procedure: as §2

[7] = tested on: Ipomea hederaceae; assay: as above; conditions: evaluated after 13 days, 10=total damage to plant, 0=no damage to plant
Procedure: as §2

[8] = tested on: Setaria faberi; assay: as above; conditions: evaluated after 13 days, 10=total damage to plant, 0=no damage to plant
Procedure: as §2

[9] = tested on: Solanum nigrum; assay: as above; conditions: evaluated after 13 days, 10=total damage to plant, 0=no damage to plant
Procedure: as §2

[10] = tested on: Amaranthus retroflexus; assay: Example B2 herbicidal action, post-emergence, pots in glasshouse; conditions: evaluated after 13 days, 10=total damage to plant, 0=no damage to plant
Procedure: as §2

[11] = tested on: Echinochloa crus-galli; assay: as above; conditions: evaluated after 13 days, 10=total damage to plant, 0=no damage to plant
Procedure: as §2

[12] = tested on: Ipomea hederaceae; assay: as above; conditions: evaluated after 13 days, 10=total damage to plant, 0=no damage to plant
Procedure: as §2

[13] = tested on: Setaria faberi; assay: as above; conditions: evaluated after 13 days, 10=total damage to plant, 0=no damage to plant
Procedure: as §2

[14] = tested on: Solanum nigrum; assay: as above; conditions: evaluated after 13 days, 10=total damage to plant, 0=no damage to plant
Procedure: as §2

| SMILES | AMARE, damage to plant [1] | NAAOF, damage to plant [2] | SOLNI, damage to plant [3] | STEME, damage to plant [4] | AMARE, damage to plant ([5]; 1000 g/ha) | ECHCG, damage to plant ([6]; 1000 g/ha) | IPOHE, damage to plant ([7]; 1000 g/ha) | SETFA, damage to plant ([8]; 1000 g/ha) | SOLNI, damage to plant ([9]; 1000 g/ha) | AMARE, damage to plant ([10]; 1000 g/ha) | ECHCG, damage to plant ([11]; 1000 g/ha) | IPOHE, damage to plant ([12]; 1000 g/ha) | SETFA, damage to plant ([13]; 1000 g/ha) | SOLNI, damage to plant ([14]; 1000 g/ha) | other results |
| --- | --- | --- | --- | --- | --- | --- | --- | --- | --- | --- | --- | --- | --- | --- | --- |
| O=c1[nH]c2nccnc2c(O)c1-c1sc(Cl)nc1C(F)(F)F [Compound B11] | 3 | 5 | 2 | 5 | – | – | – | – | – | – | – | – | – | – | – |
| CCOC(=O)Oc1c(-c2ncc(Cl)cc2Cl)c(=O)n(C)c2nccnc12 [Compound A2, Carbonic acid 7-(3,5-dichloro-pyrid-2-yl)-5-methyl-6-oxo-5,6-dihydro-pyrido-[2,3-b]pyrazin-8-yl ester ethyl ester] | 0 | 5 | 0 | 5 | – | – | – | – | – | – | – | – | – | – | – |
| CC(C)C(=O)Oc1c(-c2ncc(Cl)cc2Cl)c(=O)n(C)c2nccnc12 [Compound A7, Isobutyric acid 7-(3,5-dichloro-pyrid-2-yl)-5-methyl-6-oxo-5,6-dihydro-pyrido[2,3-b]pyrazin-8-yl ester] | 7 | 7 | 0 | 7 | – | – | – | – | – | – | – | – | – | – | – |
| CC(C)C(=O)Oc1c(-c2cc(C(F)(F)F)no2)c(=O)n(C)c2nccnc12 [Compound B8, isobutyric acid 5-methyl-6-oxo-7-(3-trifluoromethyl-isoxazol-5-yl)-5,6-dihydro-pyrido[2,3-b]pyrazin-8-yl ester] | 0 | 2 | 2 | 0 | – | – | – | – | – | – | – | – | – | – | – |
| CCn1c(=O)c(-c2sc(Cl)nc2C)c(OC(=O)C(C)(C)C)c2nccnc21 [Compound B4] | 0 | 8 | 3 | 2 | – | – | – | – | – | – | – | – | – | – | – |
| CC(C)(C)C(=O)Oc1c(-c2ccc(Cl)nc2Cl)c(=O)[nH]c2nccnc12 [Compound A14, 2,2-dimethyl-propionic acid 7-(2,6-dichloro-pyrid-3-yl)-6-oxo-5,6-dihydro-pyrido[2,3-b]pyrazin-8-yl ester] | – | – | – | – | 0 | 4 | 0 | 2 | 0 | 5 | 6 | 4 | 7 | 7 | – |
| O=c1c(-c2cc(Cl)ncc2Cl)c(O)c2nccnc2n1CC(F)F [Compound A21, 7-(2,5-Dichloro-pyrid-4-yl)-5-(2,2-difluoro-ethyl)-8-hydroxy-5H-pyrido[2,3-b]pyrazin-6-one] | – | – | – | – | 2 | 0 | 0 | 2 | 0 | 9 | 7 | 7 | 7 | 8 | – |
| CC(C)C(=O)Oc1c(-c2nn(C)nc2C(F)(F)F)c(=O)n(CC(F)F)c2nccnc12 [Compound B29] | – | – | – | – | 4 | 1 | 1 | 3 | 2 | 8 | 3 | 7 | 7 | 7 | – |
| CC(C)C(=O)Oc1c(-c2ccc(C(F)(F)F)nc2Cl)c(=O)n(CC(F)F)c2nccnc12 [Compound A30] | – | – | – | – | – | – | – | – | – | – | – | – | – | – | AMARE, damage to plant ([5]; 250 g/ha): 1; ECHCG, damage to plant ([6]; 250 g/ha): 3; IPOHE, damage to plant ([7]; 250 g/ha): 0; SETFA, damage to plant ([8]; 250 g/ha): 0; SOLNI, damage to plant ([9]; 250 g/ha): 1; AMARE, damage to plant ([10]; 250 g/ha): 9; ECHCG, damage to plant ([11]; 250 g/ha): 1; IPOHE, damage to plant ([12]; 250 g/ha): 6; SETFA, damage to plant ([13]; 250 g/ha): 4; SOLNI, damage to plant ([14]; 250 g/ha): 6 |
| O=c1c(-c2c(Cl)cncc2Cl)c(O)c2nccnc2n1CC(F)F [Compound A12, 7-(3,5-Dichloro-pyrid-4-yl)-5-(2,2-difluoro-ethyl)-8-hydroxy-5H-pyrido[2,3-b]pyrazin-6-one] | – | – | – | – | 4 | 6 | 5 | 4 | 2 | 9 | 8 | 9 | 8 | 10 | – |
| Cn1nc(C(F)(F)F)c(-c2c(O)c3nccnc3n(CC(F)F)c2=O)c1OC(F)F [Compound B25, 7-(5-difluoromethoxy-1-methyl-3-trifluoromethyl-1H-pyrazol-4-yl)-5-(2,2-difluoro-ethyl)-8-hydroxy-5H-pyrido[2,3-b]pyrazin-6-one] | – | – | – | – | 10 | 8 | 6 | 8 | 7 | 8 | 8 | 8 | 8 | 10 | – |
| CC(C)(C)C(=O)Oc1c(-c2c(Cl)cncc2Cl)c(=O)n(CC(F)F)c2nccnc12 [Compound A11, 2,2-Dimethyl-propionic acid 7-(3,5-dichloro-pyrid-4-yl)-5-(2,2-difluoro-ethyl)-6-oxo-5,6-dihydro-pyrido[2,3-b]pyrazin-8-yl ester] | – | – | – | – | 8 | 8 | 5 | 7 | 8 | 9 | 8 | 8 | 8 | 8 | – |
| CC(C)(C)C(=O)Oc1c(-c2ccc(Cl)nc2Cl)c(=O)n(CC(F)F)c2nccnc12 [Compound A16, 2,2-dimethyl-propionic acid 7-(2,6-dichloro-pyrid-3-yl)-5-(2,2-difluoro-ethyl)-6-oxo-5,6-dihydro-pyrido[2,3-b]pyrazin-8-yl ester] | – | – | – | – | 0 | 2 | 2 | 0 | 5 | 10 | 6 | 7 | 6 | 9 | – |
| Cn1nc(C(F)(F)F)c(-c2c(O)c3nccnc3[nH]c2=O)c1OC(F)F [Compound B26, 7-(5-difluoromethoxy-1-methyl-3-trifluoromethyl-1H-pyrazol-4-yl)-8-hydroxy-5H-pyrido[2,3-b]pyrazin-6-one] | – | – | – | – | 1 | 1 | 0 | 0 | 0 | 5 | 6 | 3 | 8 | 3 | – |
| O=c1c(-c2cnc(Cl)cc2Cl)c(O)c2nccnc2n1CC(F)F [Compound A19, 7-(4,6-Dichloro-pyrid-3-yl)-5-(2,2-difluoro-ethyl)-8-hydroxy-5H-pyrido[2,3-b]pyrazin-6-one] | – | – | – | – | 7 | 5 | 1 | 0 | 0 | 10 | 6 | 8 | 4 | 10 | – |
